Experimental data: patent US6737383B1, “Herbicidal oxadiazolidines” (priority 1999, dated 2004)

Assays:
[1] = system: corn; test: Test B pre/postemergence corn; type: in vivo, Zea mays
Procedure, shortened: (§1)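 Test chemicals in a non-phytotoxic solvent mixture with surfactant were sprayed preemergence onto planted seeds and postemergence onto plants 2 to 18 cm tall (1- to 4-leaf stage). After twelve to sixteen days in a greenhouse, injury was visually rated against untreated controls from 0 (no effect) to 10 (complete control).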

[2] = system: pigweed; test: Test B pre/postemergence pigweed; type: in vivo, Amaranthus retroflexus
Procedure, shortened: as §1

[3] = system: purple nutsedge; test: Test B pre/postemergence purple nutsedge; type: in vivo, Cyperus rotundus
Procedure, shortened: as §1

[4] = system: giant foxtail; test: Test B pre/postemergence giant foxtail; type: in vivo, Setaria faberii
Procedure, shortened: as §1

[5] = system: blackgrass; test: Test B pre/postemergence blackgrass; type: in vivo, Alopecurus myosuroides
Procedure, shortened: as §1

[6] = system: rice; test: Test B flood test rice; type: in vivo, Oryza sativa
Procedure, shortened: (§2)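 Flood test on plants grown to the 2-leaf stage; treated plants kept in greenhouse twelve to sixteen days, then visually rated against controls on a 0 (no effect) to 10 (complete control) scale.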

[7] = system: velvetleaf; test: Test B pre/postemergence velvetleaf; type: in vivo, Abutilon theophrasti
Procedure, shortened: as §1

[8] = system: morningglory; test: Test B pre/postemergence morningglory; type: in vivo, Ipomoea hederacea
Procedure, shortened: as §1

[9] = system: bamyardgrass; test: Test B flood test barnyardgrass; type: in vivo, Echinochloa crus-galli
Procedure, shortened: as §2

[10] = system: duck salad; test: Test B flood test duck salad; type: in vivo, Heteranthera limosa
Procedure, shortened: as §2

[11] = system: sugar beet; test: Test B pre/postemergence sugar beet; type: in vivo, Beta vulgaris
Procedure, shortened: as §1

[12] = system: smallflower flatsedge; test: Test B flood test smallflower flatsedge; type: in vivo, Cyperus difformis
Procedure, shortened: as §2

[13] = system: rape; test: Test B pre/postemergence rape; type: in vivo, Brassica napus
Procedure, shortened: as §1

[14] = system: soybean; test: Test B pre/postemergence soybean; type: in vivo, Glycine max
Procedure, shortened: as §1

[15] = system: surinam grass; test: Test B pre/postemergence surinam grass; type: in vivo, Brachiaria decumbens
Procedure, shortened: as §1

[16] = Postemergence, Rate 250 g/ha, scale 0 to 10
[17] = Postemergence, Rate 500 g/ha, scale of 0 to 10 where 0 is no effect and 10 is complete control
[18] = Preemergence, Rate 62 g/ha, scale of 0 to 10 where 0 is no effect and 10 is complete control
[19] = Preemergence, Rate 125 g/ha, scale of 0 to 10 where 0 is no effect and 10 is complete control
[20] = Preemergence, Rate 250 g/ha, scale 0 to 10, 0 is no effect, 10 is complete control
[21] = Preemergence, Rate 500 g/ha, scale 0 to 10, 0 is no effect, 10 is complete control
[22] = Rate 62 g/ha, Postemergence, scale 0 to 10, 0 no effect, 10 complete control
[23] = Rate 125 g/ha, Postemergence, scale 0 to 10, 0 is no effect, 10 is complete control
[24] = Rate 62 g/ha, flood test species, Pre-emergence, visual evaluation after twelve to sixteen days
[25] = Rate 125 g/ha, under heading Pre-emergence, flood test species, visual evaluation after twelve to sixteen days
[26] = Rate 250 g/ha, Pre-emergence (flood test species), scale 0 to 10, 0 is no effect, 10 is complete control
[27] = Rate 500 g/ha, Pre-emergence, flood test species, scale 0 to 10 (0 no effect, 10 complete control)

COC(C)n1c(=O)on(C(=O)N(c2ccc(F)cc2)C(C)C)c1=O (centres unmarked) [Compound 439]
0: Corn plant response rating [1, 16] | Corn plant response rating [1, 17] | Plant response rating, Corn [1, 18] | Plant response rating, Corn [1, 19] | Corn plant response rating [1, 20] | Corn plant response rating [1, 21] | Corn plant response rating [1, 22] | Corn plant response rating [1, 23] | Redroot pigweed plant response rating [2, 16] | Redroot pigweed plant response rating [2, 17] | Plant response rating, Redroot pigweed [2, 18] | Plant response rating, Redroot pigweed [2, 19] | Redroot pigweed plant response rating [2, 20] | Redroot pigweed plant response rating [2, 21] | Redroot pigweed plant response rating [2, 22] | Redroot pigweed plant response rating [2, 23] | Nutsedge plant response rating [3, 16] | Nutsedge plant response rating [3, 17] | Plant response rating, Nutsedge [3, 18] | Plant response rating, Nutsedge [3, 19] | Nutsedge plant response rating [3, 20] | Nutsedge plant response rating [3, 21] | Nutsedge plant response rating [3, 22] | Nutsedge plant response rating [3, 23] | Giant foxtail plant response rating [4, 16] | Giant foxtail plant response rating [4, 17] | Plant response rating, Giant foxtail [4, 18] | Plant response rating, Giant foxtail [4, 19] | Giant foxtail plant response rating [4, 20] | Giant foxtail plant response rating [4, 21] | Giant foxtail plant response rating [4, 22] | Giant foxtail plant response rating [4, 23] | Blackgrass plant response rating [5, 16] | Blackgrass plant response rating [5, 17] | Plant response rating, Blackgrass [5, 18] | Plant response rating, Blackgrass [5, 19] | Blackgrass plant response rating [5, 20] | Blackgrass plant response rating [5, 21] | Blackgrass plant response rating [5, 22] | Blackgrass plant response rating [5, 23] | Plant response rating, Rice (0 to 10 scale, 0 is no effect, 10 is complete control) [6, 24] | Rice plant response rating (0 to 10 scale, 0 is no effect, 10 is complete control) [6, 25] | Rice plant response rating [6, 26] | Rice plant response rating [6, 27] | Velvetleaf plant response rating [7, 16] | Velvetleaf plant response rating [7, 17] | Plant response rating, Velvetleaf [7, 18] | Plant response rating, Velvetleaf [7, 19] | Velvetleaf plant response rating [7, 20] | Velvetleaf plant response rating [7, 21] | Velvetleaf plant response rating [7, 22] | Velvetleaf plant response rating [7, 23] | Morningglory plant response rating [8, 16] | Morningglory plant response rating [8, 17] | Plant response rating, Morningglory [8, 18] | Plant response rating, Morningglory [8, 19] | Morningglory plant response rating [8, 20] | Morningglory plant response rating [8, 21] | Morningglory plant response rating [8, 22] | Morningglory plant response rating [8, 23] | Plant response rating, Barnyardgrass (0 to 10 scale, 0 is no effect, 10 is complete control) [9, 24] | Barnyardgrass plant response rating (0 to 10 scale, 0 is no effect, 10 is complete control) [9, 25] | Barnyardgrass plant response rating [9, 26] | Barnyardgrass plant response rating [9, 27] | Plant response rating, Ducksalad (0 to 10 scale, 0 is no effect, 10 is complete control) [10, 24] | Ducksalad plant response rating (0 to 10 scale, 0 is no effect, 10 is complete control) [10, 25] | Ducksalad plant response rating [10, 26] | Ducksalad plant response rating [10, 27] | Sugarbeets plant response rating [11, 16] | Sugarbeets plant response rating [11, 17] | Plant response rating, Sugarbeets [11, 18] | Plant response rating, Sugarbeets [11, 19] | Sugarbeets plant response rating [11, 20] | Sugarbeets plant response rating [11, 21] | Sugarbeets plant response rating [11, 22] | Sugarbeets plant response rating [11, 23] | Plant response rating, S. Flatsedge (0 to 10 scale, 0 is no effect, 10 is complete control) [12, 24] | S. Flatsedge plant response rating (0 to 10 scale, 0 is no effect, 10 is complete control) [12, 25] | S. Flatsedge plant response rating [12, 26] | S. Flatsedge plant response rating [12, 27] | Rape plant response rating [13, 16] | Rape plant response rating [13, 17] | Plant response rating, Rape [13, 18] | Plant response rating, Rape [13, 19] | Rape plant response rating [13, 20] | Rape plant response rating [13, 21] | Rape plant response rating [13, 22] | Rape plant response rating [13, 23] | Soybean plant response rating [14, 16] | Soybean plant response rating [14, 17] | Plant response rating, Soybean [14, 18] | Plant response rating, Soybean [14, 19] | Soybean plant response rating [14, 20] | Soybean plant response rating [14, 21] | Soybean plant response rating [14, 22] | Soybean plant response rating [14, 23] | B. signalgrass plant response rating ([15]; Postemergence, Rate 250 g/ha, scale 0 to 10, 0 no effect, 10 complete control) | B. signalgrass plant response rating [15, 17] | Plant response rating, B. signalgrass [15, 18] | Plant response rating, B. signalgrass [15, 19] | B. signalgrass plant response rating [15, 20] | B. signalgrass plant response rating [15, 21] | B. signalgrass plant response rating [15, 22] | B. signalgrass plant response rating [15, 23]
